# “And” between values parts separate entries of the source, which are not always exact repeats. Equal entries are not always repeated. Where two headings read alike, the source gives them in different places.
# Tests used:
# Test in all cases: Greenhouse test, pre-emergence treatment
# APESV = format: in vivo, Apera spica-venti; conditions: Apera spica-venti, 480 h, read-out: observed % activity 20 DAT; for inhibition at 12.5 g/ha: use rate 12.5 g ai/ha; for inhibition at 25 g/ha: use rate 25 g ai/ha
# Procedure, shortened: (§1)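 Seeds were sown in loamy sand with approximately 3.0% humus, then sprayed at once with actives suspended or emulsified in water. Pots were watered, hooded until rooting, held at 10-25° C. or 20-35° C. by species for 2 to 4 weeks, and scored 0 (no damage) to 100 (no emergence/complete destruction).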
# ALOMY = format: in vivo, Alopecurus myosuroides; conditions: Alopecurus myosuroides, pre-emergence, 480 h; for inhibition at 12.5 g/ha: use rate 12.5 g ai/ha; for inhibition at 25 g/ha: use rate 25 g ai/ha
# Procedure, shortened: as §1
# KCHSC = format: in vivo, Kochia scoparia; conditions: Bassia scoparia, 480 h, pre-emergence
# Procedure, shortened: as §1
# SETVI = format: in vivo, Setaria viridis; conditions: 8 g ai/ha
# Procedure, shortened: as §1
# POLCO = format: in vivo, Polygonum convolvulus; conditions: Fallopia convolvulus, 480 h, pre-emergence; for inhibition at 12.5 g/ha: use rate 12.5 g ai/ha
# Procedure, shortened: as §1
# EPHHL = format: in vivo, Euphorbia heterophylla; conditions: Euphorbia heterophylla, pre-emergence, 480 h, pre-emergence, read-out: observed % activity 20 DAT
# Procedure, shortened: as §1
# COMBE = format: in vivo, Commelina benghalensis; conditions: Commelina benghalensis, 480 h; pre-emergence, 12 g ai/ha; read-out: observed % activity 20 DAT
# Procedure, shortened: as §1
# GERPU = format: in vivo, Geranium pusillum; conditions: Geranium pusillum, pre-emergence, 480 h, pre-emergence, read-out: observed % activity 20 DAT
# Procedure, shortened: as §1
# ECHCG = format: in vivo, Echinocloa crus-galli; conditions: Echinochloa crus-galli, 480 h, read-out: observed % activity 20 DAT; for inhibition at 12.5 g/ha: use rate 12.5 g ai/ha
# Procedure, shortened: as §1
# SETFA = format: in vivo, Setaria faberi; conditions: Setaria faberi, 480 h, SETFA, 20 DAT, read-out: observed % activity 20 DAT
# Procedure, shortened: as §1
# LOLMU = format: in vivo, Lolium multiflorum; conditions: Lolium multiflorum, pre-emergence, 480 h; for inhibition at 12.5 g/ha: use rate 12.5 g ai/ha; for inhibition at 25 g/ha: use rate 25 g ai/ha
# Procedure, shortened: as §1
# BRADC = format: in vivo, Brachiaria decumbens; conditions: pre-emergence
# Procedure, shortened: as §1
# AVEFA = format: in vivo, Avena fatua; conditions: pre-emergence
# Procedure, shortened: as §1
# IPOHE = format: in vivo, Ipomoea hederacea; conditions: Ipomoea hederacea, 480 h, 24 g ai/ha, read-out: observed % activity 20 DAT
# Procedure, shortened: as §1
# GALAP = format: in vivo, Galium aparine; conditions: Galium aparine, 480 h, pre-emergence
# Procedure, shortened: as §1
# PHACA = format: in vivo, Phalaris canariensis; conditions: Phalaris canariensis, pre-emergence, 480 h; for inhibition at 12.5 g/ha: use rate 12.5 g ai/ha; for inhibition at 25 g/ha: use rate 25 g ai/ha
# Procedure, shortened: as §1
# [1] = 12 g ai/ha, 20 DAT, read-out: observed % activity
# [2] = 24 g ai/ha, 20 DAT, read-out: observed % activity
# [3] = 6 g ai/ha, read-out: observed % activity 20 DAT
# [4] = 12 g ai/ha, read-out: observed % activity 20 DAT
# [5] = 24 g ai/ha, read-out: observed % activity 20 DAT
# [6] = ALOMY, 20 DAT, read-out: observed % activity 20 DAT
# [7] = read-out: observed % activity 20 DAT
# [8] = 6 g ai/ha, 20 DAT, read-out: observed % activity
# [9] = 8 g ai/ha, read-out: observed % activity 20 DAT
# [10] = LOLMU, 20 DAT, read-out: observed % activity 20 DAT
# [11] = PHACA, 20 DAT, read-out: observed % activity 20 DAT
structure (smiles),measurement,setting,value
"Cn1nc(C(F)(F)F)c(CS(=O)(=O)C2=NOC(C)(C)C2)c1OC(F)F [Pyroxasulfone, pyroxasulfone]",inhibition at 12.5 g/ha,"APESV; APESV, 20 DAT",40%
same,inhibition at 25 g/ha,"APESV; APESV, 20 DAT",50%
same,inhibition at 12.5 g/ha,APESV,50%
same,inhibition at 25 g/ha,APESV,60%
same,inhibition at 12 g/ha,ALOMY; [1],95%
same,inhibition at 24 g/ha,ALOMY; [2],98%
same,pest or weed control at 6 g/ha,ALOMY; [3],80%
same,pest or weed control at 12 g/ha,ALOMY; [4],95%
same,pest or weed control at 24 g/ha,ALOMY; [5],98%
same,inhibition at 12.5 g/ha,ALOMY; [6],20%
same,inhibition at 25 g/ha,ALOMY; [6],20%
same,inhibition at 12.5 g/ha,ALOMY; [7],20%
same,inhibition at 25 g/ha,ALOMY; [7],20%
same,pest or weed control at 12 g/ha,KCHSC; [4],50%
same,pest or weed control at 24 g/ha,KCHSC; [5],80%
same,inhibition at 6 g/ha,KCHSC; [8],0%
same,inhibition at 12 g/ha,KCHSC; [1],85%
same,inhibition at 25 g/ha,"KCHSC; use rate 25 g ai/ha, read-out: observed % activity 20 DAT",0%
same,observed % activity 20 DAT,SETVI,85%
same,pest or weed control at 12 g/ha,POLCO; [4],20%
same,pest or weed control at 24 g/ha,POLCO; [5],20%
same,inhibition at 12 g/ha,POLCO; [1],0%
same,inhibition at 12.5 g/ha,"POLCO; POLCO, 20 DAT, read-out: observed % activity 20 DAT",0%
same,inhibition at 12.5 g/ha,POLCO; [7],0%
same,pest or weed control at 12 g/ha,EPHHL; 12 g ai/ha,40%
same,pest or weed control at 24 g/ha,EPHHL; 24 g ai/ha,70%
same,pest or weed control at 12 g/ha,COMBE,90%
same,pest or weed control at 12 g/ha,GERPU; 12 g ai/ha,10%
same,pest or weed control at 24 g/ha,GERPU; 24 g ai/ha,20%
same,pest or weed control at 8 g/ha,ECHCG; 8 g ai/ha,70%
same,inhibition at 12.5 g/ha,"ECHCG; ECHCG, 20 DAT",50%
same,inhibition at 25 g/ha,"ECHCG; ECHCG, use rate 25 g ai/ha, 20 DAT",90%
same,inhibition at 12.5 g/ha,ECHCG,50%
same,inhibition at 12.5 g/ha,SETFA; use rate 12.5 g ai/ha,80%
same,inhibition at 25 g/ha,SETFA; use rate 25 g ai/ha,95%
same,inhibition at 6 g/ha,LOLMU; [8],35%
same,inhibition at 24 g/ha,LOLMU; [2],98%
same,pest or weed control at 6 g/ha,LOLMU; [3],70%
same,pest or weed control at 8 g/ha,LOLMU; [9],50%
same,pest or weed control at 12 g/ha,LOLMU; [4],80%
same,pest or weed control at 24 g/ha,LOLMU; [5],95%
same,inhibition at 12.5 g/ha,LOLMU; [10],30%
same,inhibition at 25 g/ha,LOLMU; [10],40%
same,inhibition at 12.5 g/ha,LOLMU; [7],30%
same,inhibition at 25 g/ha,LOLMU; [7],40%
same,inhibition at 6 g/ha,"BRADC; Urochloa decumbens, 480 h, 6 g ai/ha, 20 DAT, read-out: observed % activity",53%
same,pest or weed control at 6 g/ha,"BRADC; Urochloa decumbens, 480 h, 6 g ai/ha, read-out: observed % activity 20 DAT",35%
same,pest or weed control at 12 g/ha,"BRADC; Urochloa decumbens, 480 h, 12 g ai/ha, read-out: observed % activity 20 DAT",30%
same,pest or weed control at 16 g/ha,"BRADC; Urochloa decumbens, 480 h, 16 g ai/ha, read-out: observed % activity 20 DAT",55%
same,pest or weed control at 24 g/ha,"BRADC; Urochloa decumbens, 480 h, 24 g ai/ha, read-out: observed % activity 20 DAT",95%
same,observed % activity 20 DAT,BRADC; 12 g ai/ha,30%
same,inhibition at 6 g/ha,"AVEFA; Avena fatua, 480 h, 6 g ai/ha, 20 DAT, read-out: observed % activity",0%
same,inhibition at 24 g/ha,"AVEFA; Avena fatua, 480 h, 24 g ai/ha, 20 DAT, read-out: observed % activity",60%
same,observed % activity 20 DAT,AVEFA; 8 g ai/ha,40%
same,observed % activity 20 DAT,AVEFA; 12 g ai/ha,20% and 30%
same,observed % activity 20 DAT,AVEFA; 16 g ai/ha,60% and 35%
same,observed % activity 20 DAT,AVEFA; 24 g ai/ha,70%
same,pest or weed control at 24 g/ha,IPOHE,10%
same,pest or weed control at 12 g/ha,GALAP; [4],35%
same,pest or weed control at 24 g/ha,GALAP; [5],50%
same,inhibition at 12 g/ha,GALAP; [1],75%
same,inhibition at 24 g/ha,GALAP; [2],75%
same,inhibition at 6 g/ha,PHACA; [8],80%
same,inhibition at 24 g/ha,PHACA; [2],95%
same,pest or weed control at 6 g/ha,PHACA; [3],70%
same,pest or weed control at 8 g/ha,PHACA; [9],70%
same,pest or weed control at 12 g/ha,PHACA; [4],75%
same,pest or weed control at 16 g/ha,"PHACA; 16 g ai/ha, read-out: observed % activity 20 DAT",75%
same,pest or weed control at 24 g/ha,PHACA; [5],95%
same,inhibition at 12.5 g/ha,PHACA; [11],40%
same,inhibition at 25 g/ha,PHACA; [11],55%
same,inhibition at 12.5 g/ha,PHACA; [7],40%
same,inhibition at 25 g/ha,PHACA; [7],55%

# Source: US9999222B2, “Herbicidal combination comprising azines” (BASF SE, priority 2014, dated 2018)
